Reference: US20230270826A1, “ANTIVIRAL USE OF L[…] GEFITINIB” (priority 2020, published 2023)

Legend:
[1] = test system: interleukin 6 (IL-6); assay: Cytokine release assay (IL-6) in PBMC stimulated with SARS-CoV2 proteins; type: cell-based, human
[2] = test system: genes from the COVID-19 model; assay: Transcription fingerprinting by 3' RNA-sequencing of nucleocapsid-stimulated cells; type: cell-based, human
[3] = compound effect vs nucleocapsid stimulation

Row | SMILES | Immune modulation of interleukin 6 (IL-6) release ([1]; nucleocapsid (N) stimulation vs Mock, FIG. 1) | Expression of genes up- or down-regulated 2-fold by nucleocapsid (N) vs Mock ([2]; N+compound vs N, FIG. 4) | Regulation of genes up-regulated at time 4 h N vs Mock ([2]; N-compound vs N, 4 h, FIG. 4 boxplots) | Regulation of genes downregulated in nucleocapsid (N) stimulation vs Mock [2, 3] | Regulation of genes upregulated in nucleocapsid (N) stimulation vs Mock [2, 3] | Immune modulation of interleukin 6 (IL-6) release ([1]; spike (S) or spike trimer (St) stimulation vs Mock, GEF 0.5 μM and 5 μM, POM 100 ng/ml, FIG. 3)
1 | COc1cc2ncnc(Nc3ccc(F)c(Cl)c3)c2cc1OCCCN1CCOCC1 [gefitinib] | stronger than by dexamethasone (DEX) alone | “normalized” in their expression | strongly down-regulated | upregulated | downregulated | 
2 | Nc1cccc2c1C(=O)N(C1CCC(=O)NC1=O)C2=O (stereo not drawn) [pomalidomide] |  |  |  |  |  | does not show immune modulation
